Here are results for 20 molecules from PubChem BioAssay AID328 (DTP/NCI, 2004).

Several values for one entry are separate records, joined by “and”; a condition that tells them apart may be missing. Identical values can stand only once. Toxic doses and inconclusive results are not listed.

For this assay, the system named is BDF1 mice, P388 leukemia ip, median survival T/C. The experiment in a line: NCI In Vivo Anticancer Drug Screen. Data for tumor model P388 Leukemia (intraperitoneal) in B6D2F1 (BDF1) mice. Particulars: endpoint: median survival time, higher = longer survival. In outline:
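Antitumour effect was judged in vivo: survival in drug-treated mice, normalised to that of vehicle-dosed controls, gives the reported T/C.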

Where [1] appears, read: dose: 100.0 mg/kg/injection, schedule: Q04DX003 (ip), vehicle: saline with Tween-80.
Where [2] appears, read: dose: 200.0 mg/kg/injection, schedule: Q04DX003 (ip), vehicle: saline with Tween-80.
Setting [3] is: dose: 400.0 mg/kg/injection, schedule: Q04DX003 (ip), vehicle: saline with Tween-80.
[4] abbreviates: dose: 100.0 mg/kg/injection, schedule: Q04DX003 (ip), vehicle: Klucel (hydroxypropylcellulose) (HPC).
Setting [5] is: dose: 200.0 mg/kg/injection, schedule: Q04DX003 (ip), vehicle: Klucel (hydroxypropylcellulose) (HPC).
Where [6] appears, read: dose: 400.0 mg/kg/injection, schedule: Q04DX003 (ip), vehicle: Klucel (hydroxypropylcellulose) (HPC).
Setting [7] is: dose: 100.0 mg/kg/injection, schedule: Q01DX009 (ip), vehicle: saline with Tween-80.
Setting [8] is: dose: 200.0 mg/kg/injection, schedule: Q01DX009 (ip), vehicle: saline with Tween-80.
Where [9] appears, read: dose: 50.0 mg/kg/injection, schedule: Q01DX009 (ip), vehicle: saline with Tween-80.
Setting [10] is: dose: 50.0 mg/kg/injection, schedule: Q01DX009 (ip), vehicle: saline.

Regarding `c1ccc2c(c1)OCCOCCOc1ccccc1OCCOCCO2`, the T/C runs as follows: (dose: 4.69 mg/kg/injection, schedule: Q01DX009 (ip), vehicle: saline with Tween-80) 100 % of control; (dose: 9.38 mg/kg/injection, schedule: Q01DX009 (ip), vehicle: saline with Tween-80) 90 % of control; (dose: 18.7 mg/kg/injection, schedule: Q01DX009 (ip), vehicle: saline with Tween-80) 90 % of control; under setting [1], 100 % of control; (dose: 150.0 mg/kg/injection, schedule: Q01DX009 (ip), vehicle: saline with Tween-80) 89 % of control; under setting [2], 100 % of control. Besides, the T/C under setting [3] was 105 % of control.
`O=C1C=C(N2CC2)c2ccccc2C1=O`: the T/C reads like this: (dose: 2.5 mg/kg/injection, schedule: Q01DX009 (ip), vehicle: Klucel (hydroxypropylcellulose) (HPC)) 100 % of control; (dose: 5.0 mg/kg/injection, schedule: Q01DX009 (ip), vehicle: Klucel (hydroxypropylcellulose) (HPC)) 90 % of control; (dose: 10.0 mg/kg/injection, schedule: Q01DX009 (ip), vehicle: Klucel (hydroxypropylcellulose) (HPC)) 104 % of control; (dose: 11.0 mg/kg/injection, schedule: Q04DX003 (ip), vehicle: saline with Tween-80) 109 % of control; (dose: 16.5 mg/kg/injection, schedule: Q04DX003 (ip), vehicle: saline with Tween-80) 104 % of control; (dose: 20.0 mg/kg/injection, schedule: Q01DX009 (ip), vehicle: Klucel (hydroxypropylcellulose) (HPC)) 104 % of control. In addition, the T/C (dose: 25.0 mg/kg/injection, schedule: Q04DX003 (ip), vehicle: saline with Tween-80) is 118 % of control.
On to `CCOc1cc(-c2nccc3cc(OC)c(OC)cc23)cc(OCC)c1OCC`, for which the T/C (dose: 100.0 mg/kg/injection, schedule: Q01DX009 (ip), vehicle: Klucel (hydroxypropylcellulose) (HPC)) was 110 % of control; the T/C under setting [4] was 100 % of control; the T/C (dose: 200.0 mg/kg/injection, schedule: Q01DX009 (ip), vehicle: Klucel (hydroxypropylcellulose) (HPC)) was 110 % of control; the T/C under setting [5] was 100 % of control; the T/C (dose: 400.0 mg/kg/injection, schedule: Q01DX009 (ip), vehicle: Klucel (hydroxypropylcellulose) (HPC)) is 110 % of control; the T/C under setting [6] is 100 % of control.
For `OC1(C2(O)CCCC2)CCCC1`, the T/C is, setting by setting: under setting [7], 109 % of control; under setting [8], 95 % of control; (dose: 400.0 mg/kg/injection, schedule: Q01DX009 (ip), vehicle: saline with Tween-80) 100 % of control.
Take `COc1cc(-n2c(CCc3nc(-c4ccc(Cl)cc4)no3)n[nH]c2=S)c(OC)cc1Cl`: the T/C is, setting by setting: under setting [9], 100 % of control; under setting [7], 103 % of control; under setting [8], 110 % of control.
For `CCOC(=O)N1Cc2cc3cc(OC)c(OC)cc3nc2C1`, the T/C was 105 % of control under setting [1], 90 % of control under setting [2] and 105 % of control under setting [3].
`COc1cc2cc[n+]3c(C)c4ccc(OC)c(OC)c4cc3c2cc1OC` (tested in a mixture with another compound): the T/C is, setting by setting: (dose: 2.0 mg/kg/injection, schedule: Q01DX009 (ip), vehicle: saline) 122 % of control; (dose: 5.0 mg/kg/injection, schedule: Q01DX009 (ip), vehicle: saline) 117 % of control; (dose: 20.0 mg/kg/injection, schedule: Q01DX009 (ip), vehicle: saline) 150 % of control and 192 % of control; (dose: 40.0 mg/kg/injection, schedule: Q01DX009 (ip), vehicle: saline) 168 % of control and 185 % of control.
As to `O=c1cc(O)[nH]c(=S)[nH]1`, the T/C is 103 % of control under setting [9], 99 % of control under setting [7] and 88 % of control under setting [8].
Take `CC(=O)c1ccc2c(c1)[nH]c1ccccc12`: the T/C is 100 % of control under setting [1], 86 % of control under setting [2] and 95 % of control under setting [3].
Turning to `CC(C)=CCC/C(C)=C/CNCCc1c[nH]c2ccccc12`, the T/C is, setting by setting: (dose: 3.12 mg/kg/injection, schedule: Q01DX009 (ip), vehicle: Klucel (hydroxypropylcellulose) (HPC)) 117 % of control; (dose: 6.25 mg/kg/injection, schedule: Q01DX009 (ip), vehicle: Klucel (hydroxypropylcellulose) (HPC)) 104 % of control and 117 % of control; (dose: 12.5 mg/kg/injection, schedule: Q01DX009 (ip), vehicle: Klucel (hydroxypropylcellulose) (HPC)) 117 % of control; (dose: 25.0 mg/kg/injection, schedule: Q01DX009 (ip), vehicle: Klucel (hydroxypropylcellulose) (HPC)) 120 % of control; (dose: 50.0 mg/kg/injection, schedule: Q01DX009 (ip), vehicle: Klucel (hydroxypropylcellulose) (HPC)) 120 % of control.
Regarding `CCCCCCCCCCCCS(=O)(=O)O` (tested in a mixture with another compound), the T/C runs as follows: under setting [4], 95 % of control; under setting [5], 90 % of control.
For `COc1cc(/C=N/NC(=O)COCC(=O)N/N=C/c2ccc(O)cc2OC)ccc1O`, the T/C (dose: 200.0 mg/kg/injection, schedule: Q01DX005 (ip), vehicle: saline with Tween-80) was 96 % of control.
For `O=c1oc2cc(O)ccc2c2c1CCCC2`, the T/C runs as follows: under setting [4], 95 % of control; under setting [5], 95 % of control; under setting [6], 100 % of control.
For the molecule `CCCCC1C(=O)OC(C(C)C(O)CCCN=C(N)N)C(C)C=C(C)CCCCC(O)CC(O)CC(O)CC(O)CC(O)C(OC2OC(CO)C(O)C2O)C=C(C)C(O)CCCC(O)CCCC(O)CCC(C)C1O` (stereo not given), the T/C is 90 % of control (dose: 0.3 mg/kg/injection, schedule: Q01DX010 (ip), vehicle: carboxymethylcellulose (CMC)); 90 % of control (dose: 0.6 mg/kg/injection, schedule: Q01DX010 (ip), vehicle: carboxymethylcellulose (CMC)); 95 % of control (dose: 1.2 mg/kg/injection, schedule: Q01DX010 (ip), vehicle: carboxymethylcellulose (CMC)); 90 % of control (dose: 2.5 mg/kg/injection, schedule: Q01DX010 (ip), vehicle: carboxymethylcellulose (CMC)).
`O=Cc1ccc([N+](=O)[O-])s1`: the T/C (dose: 3.13 mg/kg/injection, schedule: Q01DX009 (ip), vehicle: saline with Tween-80) was 99 % of control; the T/C (dose: 6.25 mg/kg/injection, schedule: Q01DX009 (ip), vehicle: saline with Tween-80) is 99 % of control and 118 % of control; the T/C (dose: 12.5 mg/kg/injection, schedule: Q01DX009 (ip), vehicle: saline with Tween-80) is 115 % of control; the T/C (dose: 25.0 mg/kg/injection, schedule: Q01DX009 (ip), vehicle: saline with Tween-80) was 123 % of control; the T/C under setting [9] is 118 % of control.
In the case of `Cc1ccc(S(=O)(=O)NCCCCCC(=O)OCc2ccccc2)cc1`, the T/C is, setting by setting: under setting [10], 99 % of control; (dose: 100.0 mg/kg/injection, schedule: Q01DX009 (ip), vehicle: saline) 108 % of control; (dose: 200.0 mg/kg/injection, schedule: Q01DX009 (ip), vehicle: saline) 100 % of control.
Regarding `O=c1[nH]c(=O)n(C2CC(O)C(CO)O2)cc1C(F)(F)F` (stereo not given), the T/C was 104 % of control (dose: 62.5 mg/kg/injection, schedule: Q01DX009 (ip), vehicle: Klucel (hydroxypropylcellulose) (HPC)); 118 % of control (dose: 125.0 mg/kg/injection, schedule: Q01DX009 (ip), vehicle: Klucel (hydroxypropylcellulose) (HPC)); 122 % of control (dose: 250.0 mg/kg/injection, schedule: Q01DX009 (ip), vehicle: Klucel (hydroxypropylcellulose) (HPC)); 90 % of control (dose: 500.0 mg/kg/injection, schedule: Q01DX009 (ip), vehicle: Klucel (hydroxypropylcellulose) (HPC)).
Regarding `CC(=O)Nc1ccc(N=Nc2c(C)nn(C(=N)N)c2C)cc1`, the T/C runs as follows: (dose: 25.0 mg/kg/injection, schedule: Q01DX009 (ip), vehicle: saline) 97 % of control; under setting [10], 97 % of control.
With `Clc1c(Cl)c(C[P+](CCP(c2ccccc2)c2ccccc2)(c2ccccc2)c2ccccc2)c(Cl)c(Cl)c1C[P+](CCP(c1ccccc1)c1ccccc1)(c1ccccc1)c1ccccc1`, the T/C (dose: 3.13 mg/kg/injection, schedule: Q01DX009 (ip), vehicle: suspension in saline) was 114 % of control.
As for `CCOC(=N)CC(=N)OCC`, the T/C is 103 % of control (dose: 100.0 mg/kg/injection, schedule: Q01DX009 (ip), vehicle: water); 104 % of control (dose: 100.0 mg/kg/injection, schedule: Q04DX003 (ip), vehicle: water); 103 % of control (dose: 200.0 mg/kg/injection, schedule: Q01DX009 (ip), vehicle: water); 100 % of control (dose: 200.0 mg/kg/injection, schedule: Q04DX003 (ip), vehicle: water); 101 % of control (dose: 400.0 mg/kg/injection, schedule: Q01DX009 (ip), vehicle: water); 100 % of control (dose: 400.0 mg/kg/injection, schedule: Q04DX003 (ip), vehicle: water).
